Data from patent US8129427B2, “2-phenylethylamino derivatives as calcium and/or sodium channel modulators” (Newron Pharmaceuticals S.p.A., priority 2005, dated 2012).
Structures can show the parent of a compound that is named as a salt. Where two headings read alike, the source gives them in different places.

Assays:
TTXs sodium channels = assay: TTXs-sodium channel influx assay (membrane potential fluorescence); type: cell-based, rat; conditions: ND7/23 cells, veratridine 100 μM
Experimental: ND7/23 rat dorsal root ganglion-derived cell line endogenously expresses a mixed population of TTXs sodium channels (such as Nav1.3, Nav1.2, Nav1.1, Nav1.6). These cells lack of TTXr sodium channels as shown by the absence of their respective transcripts. ND7/23 cells were grown in DMEM supplemented with 10% FBS and 1 mM sodium piruvate.
The cells were seeded at 50,000 cells/well on 96 poly-L-lysine-coated plates and further incubated for 18-24 h before use.
The Membrane Potential Kit Assay (Molecular Devices), based on a negatively charged fluorescent dye able to monitor changes in membrane potential caused by the sodium influx due to the channel opening, was used for the assay.
Cells were incubated with the dye loading for 30 minutes at 25° C. Then, 100 nM of the toxin Anemonia sulcata (used as enhancer of the channel opener response) alone or in the presence of TTX (as reference standard) or test compound were added for further 15 minutes.
The fluorescence (excitation: 530 nm, emission: 565 nm wavelength) was measured before and after (40-45 s) the automated injection of the sodium channel opener veratridine (100 μM) using a Victor plate reader (Perkin Elmer).
The inhibition curves were calculated from 5 concentrations, each in triplicate, and the IC50 determined using a linear regression analysis.

N-type calcium channels = N-type calcium channels (Homo sapiens, UniProt Q00975); assay: N-type calcium channel influx assay (fluorescence); type: cell-based
MAO-B = biological target: T1, MAO-B (Rattus norvegicus, UniProt P19643); assay: In vitro MAO-B enzyme activity radioenzymatic assay; type: biochemical; conditions: 100 μM compound, rat brain crude mitochondrial fraction, 14C-PEA substrate
T1 construct: from tissue; host or cells: rat brain crude mitochondrial fraction
T1 sequence (P19643 1-520): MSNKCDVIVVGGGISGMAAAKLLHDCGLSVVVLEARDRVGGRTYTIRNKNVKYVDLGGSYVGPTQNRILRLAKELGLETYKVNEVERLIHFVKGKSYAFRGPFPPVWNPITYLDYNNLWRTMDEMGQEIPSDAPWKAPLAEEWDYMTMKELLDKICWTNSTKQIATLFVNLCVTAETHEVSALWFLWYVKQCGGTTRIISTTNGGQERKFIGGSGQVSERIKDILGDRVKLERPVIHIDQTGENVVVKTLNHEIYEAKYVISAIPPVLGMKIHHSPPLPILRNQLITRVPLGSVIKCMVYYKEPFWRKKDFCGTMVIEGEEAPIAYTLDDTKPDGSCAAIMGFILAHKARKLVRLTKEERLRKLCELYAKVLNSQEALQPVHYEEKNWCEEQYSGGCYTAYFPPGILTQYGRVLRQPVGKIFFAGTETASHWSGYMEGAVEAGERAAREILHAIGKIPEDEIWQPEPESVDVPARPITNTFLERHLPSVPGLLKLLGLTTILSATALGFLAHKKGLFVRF
Experimental: Male Wistar rats (Harlan, Italy—175-200 g) were sacrificed under light anaesthesia and brains were rapidly removed and homogenized in 8 volumes of ice-cold 0.32 M sucrose buffer containing 0.1 M EDTA, pH 7.4. The crude homogenate was centrifuged at 2220 rpm for 10 minutes and the supernatant recovered. The pellet was homogenized and centrifuged again. The two supernatants were pooled and centrifuged at 9250 rpm for 10 minutes at +4° C. The pellet was resuspended in fresh buffer and centrifuged at 11250 rpm for 10 minutes at +4° C. The resulting pellet was stored at −80° C.
The enzyme activities were assessed with a radioenzymatic assay using the substrates ^14C-serotonin (5-HT) and ^14C-phenylethylamine (PEA) for MAO-A and MAO-B, respectively.
The mitochondrial pellet (500 μg protein) was resuspended in 0.1 M phosphate buffer (pH 7.4). 500 μl of the suspension were added to a 50 μl solution of the test compound or buffer, and incubated for 30 min at 37° C. (preincubation) then the substrate (50 μl) was added. The incubation was carried out for 30 minutes at 37° C. (^14C-5-HT, 5 μM) or for 10 minutes at 37° C. (^14C-PEA, 0.5 μM).
The reaction was stopped by adding 0.2 ml of 37% HCl or perchloric acid. After centrifugation, the deaminated metabolites were extracted with 3 ml of diethyl ether (5-HT) or toluene (PEA) and the radioactive organic phase was measured by liquid scintillation spectrometry at 90% efficiency. The amount of neutral and/or acidic metabolites formed as a result of MAO activity was obtained by measuring the radioactivity of the eluate.
The activity of MAO in the sample, corresponding to a percentage of radioactivity compared with the control activity in the absence of the inhibitor, was expressed as nmoles of substrate transformed/mg protein/min.

L-type calcium channels = type: cell-based, mouse; conditions: AtT20/D16v-F2 cells, ω-conotoxin 1 μM, 100 mM KCl depolarization
[1] = biological target: recombinant human N-type channels, h α1B (hCav2.2)+β1b+α2δ-1 subunits (Homo sapiens, UniProt Q00975); assay: Patch clamp studies of calcium currents inhibition in HEK293 cells; type: cell-based; conditions: tonic block, preconditioning −50/−55 mV (half maximal steady-state inactivated condition); read-out: IC50 (Vhalf)
Experimental: Functional inhibition of the N-type Ca currents was studied using whole cell patch clamp methods (Hamill O. P., Marty A., Neher E., Sakmann B., Sigworth F. J. Pflugers Arch. (1981) 391: 85-100) on HEK293 cells expressing recombinant human N-type channels, obtained after transient transfection of h α1B (hCav2.2)+β1b+α2δ-1 subunits.
Membrane currents were recorded and filtered at 5 kHz with an Axon Axopatch 200B amplifier and digitized with an Axon Digidata 1322A (Axon Instruments, CA, USA). Voltage clamping of membrane potentials and data acquisition were controlled online with Axon pClamp8 software. Measuring and reference electrodes were AgCl—Ag electrodes. Cells had initial seal resistances of >1 GΩ and access resistances of 4.2±0.2 MΩ. Cells were continuously superfused with extracellular solutions using a Biologic RSC-200.
For calcium currents recording the control bath solution contained (mM): Choline chloride (70), MgCl2 (1), BaCl2 (20), TEA.Cl (50), Hepes (10), Glucose (10). Internal pipette solution consisted of (mM): CsCl (140), EGTA (10), MgCl2 (2), Hepes (10), MgATP (1), GTP Tris (0.3).
Compounds were dissolved as 20 mM stock solutions in DMSO and then diluted to the final concentration in the external solutions.
A two-step protocol was used to determine the voltage dependence of the block:
N-type current was activated by a 600 ms step pulse to +10 mV (test pulse) from a 5000 ms preconditioning potential of −110 mV (resting condition) or −50/−55 mV (half maximal steady-state inactivated condition), respectively.
The amplitude of calcium current peaks evoked by the respective test pulses at a frequency of 0.06 Hz were measured before and after exposure to the test substance. Tonic block of currents was calculated as the difference between the peak calcium current measured at the end of a stabilization period in the control external bath solution and peak currents measured at the end of test substance perfusion period (when steady state is reached) divided by control peaks. […]

[2] = differentiated IMR32 cells, nifedipine 1 μM, 100 mM KCl depolarization, read-out: IC50

N-type calcium channels, sequence (Q00975 whole entry): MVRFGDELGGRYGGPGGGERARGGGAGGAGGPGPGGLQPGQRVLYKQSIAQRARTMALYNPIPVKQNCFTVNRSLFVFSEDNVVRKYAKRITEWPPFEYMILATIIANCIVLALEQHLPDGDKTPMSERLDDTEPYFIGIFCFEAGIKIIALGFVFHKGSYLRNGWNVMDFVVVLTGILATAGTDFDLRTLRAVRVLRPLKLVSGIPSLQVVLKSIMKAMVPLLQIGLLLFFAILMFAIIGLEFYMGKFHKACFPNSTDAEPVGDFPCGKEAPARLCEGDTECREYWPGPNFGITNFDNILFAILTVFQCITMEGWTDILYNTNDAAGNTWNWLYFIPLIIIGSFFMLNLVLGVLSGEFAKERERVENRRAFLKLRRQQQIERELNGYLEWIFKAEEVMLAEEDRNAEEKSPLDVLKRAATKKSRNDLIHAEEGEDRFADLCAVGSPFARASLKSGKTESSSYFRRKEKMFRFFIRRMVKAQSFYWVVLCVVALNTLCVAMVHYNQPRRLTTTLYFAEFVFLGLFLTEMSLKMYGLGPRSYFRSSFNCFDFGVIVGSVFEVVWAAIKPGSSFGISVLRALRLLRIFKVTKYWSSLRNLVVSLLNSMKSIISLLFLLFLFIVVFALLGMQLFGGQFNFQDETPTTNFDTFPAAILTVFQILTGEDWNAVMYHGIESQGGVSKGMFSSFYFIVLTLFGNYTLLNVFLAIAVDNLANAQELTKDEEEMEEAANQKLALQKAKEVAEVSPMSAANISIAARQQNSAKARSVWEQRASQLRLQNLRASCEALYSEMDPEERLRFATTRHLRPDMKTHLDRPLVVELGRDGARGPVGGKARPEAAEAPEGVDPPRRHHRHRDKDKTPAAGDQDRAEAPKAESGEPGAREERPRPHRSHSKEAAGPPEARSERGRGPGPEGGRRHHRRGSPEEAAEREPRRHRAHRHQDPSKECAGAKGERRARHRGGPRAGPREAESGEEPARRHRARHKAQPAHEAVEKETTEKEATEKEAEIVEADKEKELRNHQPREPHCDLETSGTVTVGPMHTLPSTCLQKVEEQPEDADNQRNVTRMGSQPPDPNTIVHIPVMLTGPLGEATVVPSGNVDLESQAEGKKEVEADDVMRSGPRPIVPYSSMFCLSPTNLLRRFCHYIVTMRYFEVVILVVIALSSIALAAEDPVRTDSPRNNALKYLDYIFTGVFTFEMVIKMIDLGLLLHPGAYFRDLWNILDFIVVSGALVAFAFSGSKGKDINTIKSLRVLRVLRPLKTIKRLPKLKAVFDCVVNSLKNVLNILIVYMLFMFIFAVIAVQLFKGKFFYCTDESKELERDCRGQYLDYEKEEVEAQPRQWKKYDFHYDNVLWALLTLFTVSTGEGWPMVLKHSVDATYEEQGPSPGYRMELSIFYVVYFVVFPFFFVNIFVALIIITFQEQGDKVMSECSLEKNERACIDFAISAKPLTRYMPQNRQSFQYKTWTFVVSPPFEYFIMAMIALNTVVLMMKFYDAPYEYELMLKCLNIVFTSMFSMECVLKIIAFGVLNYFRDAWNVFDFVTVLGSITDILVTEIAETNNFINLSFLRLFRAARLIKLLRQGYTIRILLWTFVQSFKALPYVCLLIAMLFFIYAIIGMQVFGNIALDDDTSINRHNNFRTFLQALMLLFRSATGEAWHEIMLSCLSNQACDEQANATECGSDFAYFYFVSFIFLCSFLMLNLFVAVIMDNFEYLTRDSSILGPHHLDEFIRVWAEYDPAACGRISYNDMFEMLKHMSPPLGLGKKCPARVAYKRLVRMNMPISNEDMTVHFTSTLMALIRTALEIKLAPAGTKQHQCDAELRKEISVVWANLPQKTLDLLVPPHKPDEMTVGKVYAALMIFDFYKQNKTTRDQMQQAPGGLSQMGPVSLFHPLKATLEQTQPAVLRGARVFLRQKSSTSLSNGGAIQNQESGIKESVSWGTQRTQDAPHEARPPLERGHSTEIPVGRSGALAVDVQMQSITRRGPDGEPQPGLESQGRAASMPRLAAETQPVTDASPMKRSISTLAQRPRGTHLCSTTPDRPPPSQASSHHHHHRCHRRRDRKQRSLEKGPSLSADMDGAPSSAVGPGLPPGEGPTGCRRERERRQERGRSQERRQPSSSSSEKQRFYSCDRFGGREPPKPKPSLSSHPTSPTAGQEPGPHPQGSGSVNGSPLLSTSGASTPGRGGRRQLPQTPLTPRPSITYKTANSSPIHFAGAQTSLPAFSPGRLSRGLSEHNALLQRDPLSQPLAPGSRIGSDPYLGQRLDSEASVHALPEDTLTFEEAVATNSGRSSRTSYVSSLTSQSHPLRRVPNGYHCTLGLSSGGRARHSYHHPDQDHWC
N-type calcium channels, sequence (Q02641 whole entry partner): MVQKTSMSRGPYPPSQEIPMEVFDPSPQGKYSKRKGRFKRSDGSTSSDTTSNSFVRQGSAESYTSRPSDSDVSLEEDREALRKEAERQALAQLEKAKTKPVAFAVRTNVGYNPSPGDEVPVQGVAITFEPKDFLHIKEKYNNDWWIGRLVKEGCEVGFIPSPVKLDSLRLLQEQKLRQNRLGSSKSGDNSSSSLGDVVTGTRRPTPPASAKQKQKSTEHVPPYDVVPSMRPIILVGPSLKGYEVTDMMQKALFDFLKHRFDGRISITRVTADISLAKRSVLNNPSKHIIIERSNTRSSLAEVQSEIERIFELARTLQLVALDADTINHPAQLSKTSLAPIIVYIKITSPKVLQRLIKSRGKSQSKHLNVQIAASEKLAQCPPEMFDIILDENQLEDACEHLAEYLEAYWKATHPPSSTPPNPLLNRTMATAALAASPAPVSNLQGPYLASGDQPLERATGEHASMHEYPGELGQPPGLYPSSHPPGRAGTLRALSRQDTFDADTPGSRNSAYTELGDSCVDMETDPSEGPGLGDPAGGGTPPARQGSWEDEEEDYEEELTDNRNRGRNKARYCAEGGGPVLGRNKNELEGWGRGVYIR
N-type calcium channels, sequence (P54289 25-956 partner limits assumed): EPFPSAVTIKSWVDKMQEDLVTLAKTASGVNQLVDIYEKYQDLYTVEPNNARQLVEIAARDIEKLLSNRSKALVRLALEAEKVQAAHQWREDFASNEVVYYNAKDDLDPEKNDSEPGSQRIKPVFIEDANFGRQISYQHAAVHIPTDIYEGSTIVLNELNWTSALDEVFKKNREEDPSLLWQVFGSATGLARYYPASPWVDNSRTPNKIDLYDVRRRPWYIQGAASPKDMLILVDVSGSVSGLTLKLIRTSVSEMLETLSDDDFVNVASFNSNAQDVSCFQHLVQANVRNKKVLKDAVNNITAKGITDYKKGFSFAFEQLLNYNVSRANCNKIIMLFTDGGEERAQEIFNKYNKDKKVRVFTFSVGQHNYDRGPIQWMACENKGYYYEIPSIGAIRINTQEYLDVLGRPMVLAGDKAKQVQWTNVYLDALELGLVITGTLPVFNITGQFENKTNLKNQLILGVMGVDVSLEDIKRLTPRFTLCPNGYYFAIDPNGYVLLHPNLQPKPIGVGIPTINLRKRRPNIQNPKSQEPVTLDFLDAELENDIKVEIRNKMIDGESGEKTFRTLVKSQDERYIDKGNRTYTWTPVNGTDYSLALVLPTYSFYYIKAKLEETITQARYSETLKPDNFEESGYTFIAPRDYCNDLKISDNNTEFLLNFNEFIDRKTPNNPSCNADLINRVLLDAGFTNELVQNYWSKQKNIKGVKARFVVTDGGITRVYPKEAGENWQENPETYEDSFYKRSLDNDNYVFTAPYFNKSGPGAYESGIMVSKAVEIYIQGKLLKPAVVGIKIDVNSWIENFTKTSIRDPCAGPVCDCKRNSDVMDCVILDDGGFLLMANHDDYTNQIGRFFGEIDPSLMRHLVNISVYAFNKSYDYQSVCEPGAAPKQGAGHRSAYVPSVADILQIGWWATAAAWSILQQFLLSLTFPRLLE
N-type calcium channels, sequence (P54289 957-1103 partner limits assumed): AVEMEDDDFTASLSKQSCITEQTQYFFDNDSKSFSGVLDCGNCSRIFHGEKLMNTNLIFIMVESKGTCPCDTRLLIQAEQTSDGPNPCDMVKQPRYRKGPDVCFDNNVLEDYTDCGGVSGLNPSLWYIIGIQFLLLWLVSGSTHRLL
recombinant human N-type channels, h α1B (hCav2.2)+β1b+α2δ-1 subunits, sequence (Q00975 whole entry): as the sequence (Q00975 whole entry) above
recombinant human N-type channels, h α1B (hCav2.2)+β1b+α2δ-1 subunits, sequence (Q02641 whole entry partner): as the sequence (Q02641 whole entry partner) above
recombinant human N-type channels, h α1B (hCav2.2)+β1b+α2δ-1 subunits, sequence (P54289 25-956 partner limits assumed): as the sequence (P54289 25-956 partner limits assumed) above
recombinant human N-type channels, h α1B (hCav2.2)+β1b+α2δ-1 subunits, sequence (P54289 957-1103 partner limits assumed): as the sequence (P54289 957-1103 partner limits assumed) above

Row | SMILES | IC50 (TTXs sodium channels) | IC50 (N-type calcium channels; [2]) | inhibition at 100 µM (MAO-B) | IC50 (L-type calcium channels) | IC50 [1] | IC50 (N-type calcium channels)
1 | CNC(=O)CN(CCc1ccc(OCc2cccc(F)c2)c(OC)c1)Cc1ccc(OC)nc1 [Example 14, 2-[[2-[4-(3-Fluoro-benzyloxy)-3-methoxy-phenyl]-ethyl]-(6-methoxy-pyridin-3-ylmethyl)amino]-N-methyl-acetamide] | 2900 nM |  |  |  |  | 
2 | COc1cc(CCN(CC(=O)N2CCCC2)Cc2ccccc2)ccc1OCc1cccc(F)c1 [Example 40, 2-[[2-[4-(3-Fluoro-benzyloxy)-3-methoxy-phenyl]-ethyl]-benzylamino]-1-(pyrrolidin-1-yl)-ethanone hydrochloride] |  | 2200 nM | 11% | 1600 nM |  | 
3 | CCNC(=O)CN(CCc1ccc(OCc2cccc(F)c2)c(OC)c1)Cc1ccccc1 [Example 37, 2-[[2-[4-(3-Fluoro-benzyloxy)-3-methoxy-phenyl]-ethyl]-benzylamino]-N-ethyl-acetamide hydrochloride] | 1200 nM |  | 4% |  |  | 
4 | CNC(=O)CN(CCc1ccc(OCc2cccc(F)c2)c(OC)c1)CC1CCOC1 (stereo not shown) [Example 7, 2-[[2-[4-(3-Fluoro-benzyloxy)-3-methoxy-phenyl]-ethyl]-(tetrahydrofuran-3-ylmethyl)amino]-N-methyl-acetamide hydrochloride] |  |  |  |  | 11000 nM | 
5 | CNC(=O)[C@H](CC(C)C)NCCc1ccc(OCc2cccc(F)c2)c(OC)c1 [Example 31, (S)-2-[2-[4-(3-Fluoro-benzyloxy)-3-methoxy-phenyl]-ethylamino]-N-methyl-4-methyl-valeramide] |  |  |  | 1000 nM |  | 
6 | CNC(=O)CN(CCc1ccc(OCc2cccc(F)c2)c(OC)c1)CC(C)C [Example 2, 2-[[2-[4-(3-Fluoro-benzyloxy)-3-methoxy-phenyl]-ethyl]-isobutylamino]-N-methyl-acetamide hydrochloride] |  | 4800 nM | 53% | 3100 nM |  | 
7 | COc1cc(CCN(CC(=O)N(C)C)Cc2ccccc2)ccc1OCc1cccc(F)c1 [Example 20, 2-[[2-[4-(3-Fluoro-benzyloxy)-3-methoxy-phenyl]-ethyl]-benzylamino]-N,N-dimethyl-acetamide hydrochloride] |  |  | 3% | 4600 nM |  | 1100 nM
8 | COc1cc(CCNC(C(=O)N2CCOCC2)c2ccccc2)ccc1OCc1cccc(F)c1 (stereo not shown) [Example 33, 2-[2-[4-(3-Fluoro-benzyloxy)-3-methoxy-phenyl]-ethylamino]-1-(morpholin-4-yl)-2-phenyl-ethanone hydrochloride] | 2100 nM | 6000 nM | 0% | 7100 nM |  | 
9 | CN(C)CCNC(=O)CN(CCc1cccc(OCc2cccc(F)c2)c1)Cc1ccco1 [Example 71, 2-[[2-[3-(3-Fluoro-benzyloxy)-phenyl]-ethyl]-(furan-2-ylmethyl)amino]-N-(2-dimethylamino-ethyl)-acetamide dihydrochloride] |  | 1900 nM | 34% | 3400 nM |  | 
10 | COc1cc(CCN(CC(=O)NCCN(C)C)Cc2ccccc2)ccc1OCc1cccc(F)c1 [Example 43, 2-[[2-[4-(3-Fluoro-benzyloxy)-3-methoxy-phenyl]-ethyl]-benzylamino]-N-(2-dimethylamino-ethyl)-acetamide hydrochloride] |  | 1900 nM | 33% | 1200 nM |  | 
11 | COc1cc(CCN(CC(=O)NCC(C)(C)N)Cc2ccccc2)ccc1OCc1cccc(F)c1 [Example 42, 2-[[2-[4-(3-Fluoro-benzyloxy)-3-methoxy-phenyl]-ethyl]-benzylamino]-N-(2-amino-2-methyl-propyl)-acetamide hydrochloride] |  | 2600 nM | 32% | 2400 nM |  | 
12 | CC(C)(N)CNC(=O)CN(CCc1cccc(OCc2cccc(F)c2)c1)Cc1ccco1 [Example 72, 2-[[2-[3-(3-Fluoro-benzyloxy)-phenyl]-ethyl]-(furan-2-ylmethy ° amino]-N-(2-amino-2-methyl-propyl)-acetamidedihydrochloride] |  | 2600 nM | 31% | 2900 nM |  | 
13 | CNC(=O)CN(CCc1ccc(OCc2cccc(F)c2)c(OC)c1)Cc1ccoc1 [Example 10, 2-[[2-[4-(3-Fluoro-benzyloxy)-3-methoxy-phenyl]-ethyl]-(furan-3-ylmethyl)amino]-N-methyl-acetamide hydrochloride] |  |  |  | 1700 nM |  | 
14 | CCNC(=O)CN(CCc1ccc(OCc2cccc(F)c2)c(OC)c1)CC1CC1 [Example 47, 2-[[2-[4-(3-Fluoro-benzyloxy)-3-methoxy-phenyl]-ethyl]-(cyclopropylmethyl)amino]-N-ethyl-acetamide hydrochloride] |  |  |  | 1800 nM |  | 
15 | COc1cc(CCN(CC(=O)NCCC2CCCN2C)Cc2ccccc2)ccc1OCc1cccc(F)c1 (stereo not shown) [Example 44, 2-[[2-[4-(3-Fluoro-benzyloxy)-3-methoxy-phenyl]-ethyl]-benzylamino]-N-[2-(1-methyl-pyrrolidin-2-yl)-ethyl]-acetamide hydrochloride] |  |  | 39% |  |  | 
16 | COc1cc(CCNC(C(=O)N(C)C)c2ccccc2)ccc1OCc1cccc(F)c1 (stereo not shown) [Example 32, 2-[2-[4-(3-Fluoro-benzyloxy)-3-methoxy-phenyl]-ethylamino]-2-phenyl-N,N-dimethyl-acetamide hydrochloride] |  |  | 0% |  |  | 
